From patent publication US20220017495A1, “CONJUGATES OF BIVALENT EVANS BLUE DYE DERIVATIVES AND METHODS OF USE” (THE UNITED STATES OF AMERICA, AS REPRESENTED BY THE …, priority 2019, published 2022) come the findings set out here.

Structures can show the parent of a compound that is named as a salt.

Series [1] is described as follows: Optical properties: absorption, emission, quantum yield and quantum efficiency. Type of series: physicochemical. Details: ϵ600nm / ϵpeak: unit not given here. Conditions: for Molar ϵ600nm / Molar ϵpeak: in M-1cm-1 (unit assumed); for Absorption peak / Emission peak: in BSA; for QE: QE=ε*QY; for QY600nm: relative, NtEB set as 1; for Extinction coefficient: as given in text (peak, BSA). As for the experimental part:
The absorption and the emission spectra of N(tEB)2, NtEB and EB were measured in PBS, BSA and FBS buffers. […] The similar emission peaks of the three EB derivatives in BSA were recorded at 661, 652 and 660 nm, respectively.
Fluorescence brightness of each compound was further compared with equal molar amount of N(tEB)2, NtEB, or EB in the presence or absence of human serum albumin.
Quantum efficiency is a dye metric encompassing both the quantum yield and absorption coefficient (QE=ε*QY).

Series [2] has as its target T1, human serum albumin (HSA) (Homo sapiens, UniProt P02768). Nature of the series: Biolayer interferometry (BLI) binding to biotinylated HSA. The procedure: In this study, we used the streptavidin conjugated biosensors (Pall Fort6Bio LLC, CA). We preincubated the biosensors with biotinylated HSA (Abeam Inc., Cambridge, Mass.) for 10 minutes. After removing the unbound biotinylated HSA, the biosensors were washed for 1 minute. After blocking the spare biosensor, we added EZ-Link™ Sulfo-NHS-Biotin (Thermo Fisher Scientific, Rockford, Ill.) to each well and then removed it and washed the wells.
Association of a given dilution of a compound with the albumin-derivatized biosensor was measured for 600 seconds and then in turn, dissociation of the compound from the albumin measured for another 600 seconds. Data was analyzed using the OCTET Data Analysis software 7.0.
(BLI is a label-free optical method that tracks binding on a fibre tip over time.)

The test system of series [3] is U-87MG, UM-22B and INS-1 tumor mouse xenografts. The series can be described thus: PET tumor uptake and ex vivo biodistribution in tumor xenografts. Details: species or system nude mice. Conditions: for Tumor retention compared with IgG: U-87MG xenografts. From the text:
For each scan, regions of interest (ROIs) were drawn using vendor software (ASI Pro 5.2.4.0; Siemens Medical Solutions) on decay-corrected whole-body coronal images. […] These values were then divided by the administered activity to obtain (assuming a tissue density of 1 g/mL) an image-ROI-derived percentage injected dose per gram (% ID/g).
PET images were reconstructed without correction for attenuation or scattering using a three-dimensional ordered subsets expectation maximization algorithm.

Series [4] concerns the target T1, human serum albumin (HSA). Nature of the series: Atomic force microscopy of complexes with HSA. Conditions: molar ratio 1:10, 1:1 and 10:1 with HSA. Details: purchased Abeam Inc., Cambridge, Mass; (so in the source). As for the experimental part:
We performed atomic force microscopy (AFM) to study the morphological structures of the complex. […] Samples ([…]) were cast on freshly peeled mica substrate, followed by drying, rinsing, and dehumidifying. AFM was carried out in tapping mode in air on a PicoForce Multimode AFM (Bruker, CA) equipped with a NANOSCOPE V controller, a type E scanner head, and a sharpened TESP-SS (Bruker, CA) AFM cantilever. An inverted optical microscope (IX71, Olympus, Japan) was used to capture pictures. AFM images were then analyzed by NANOSCOPE Software (version 7.3-8.15, Bruker, CA). For quantification, 10 different fields of view in one image were selected to quantify the “dimer” and the “monomer”. The size and morphology of dimer and monomer was defined by ImageJ (NIH, MD), a public domain Java image processing program.

The test system of series [5] is blood glucose. Nature of the series: Blood glucose monitoring in T2DM mice. Type of series: in vivo, db/db mice.

T1 sequence (P02768 25-609): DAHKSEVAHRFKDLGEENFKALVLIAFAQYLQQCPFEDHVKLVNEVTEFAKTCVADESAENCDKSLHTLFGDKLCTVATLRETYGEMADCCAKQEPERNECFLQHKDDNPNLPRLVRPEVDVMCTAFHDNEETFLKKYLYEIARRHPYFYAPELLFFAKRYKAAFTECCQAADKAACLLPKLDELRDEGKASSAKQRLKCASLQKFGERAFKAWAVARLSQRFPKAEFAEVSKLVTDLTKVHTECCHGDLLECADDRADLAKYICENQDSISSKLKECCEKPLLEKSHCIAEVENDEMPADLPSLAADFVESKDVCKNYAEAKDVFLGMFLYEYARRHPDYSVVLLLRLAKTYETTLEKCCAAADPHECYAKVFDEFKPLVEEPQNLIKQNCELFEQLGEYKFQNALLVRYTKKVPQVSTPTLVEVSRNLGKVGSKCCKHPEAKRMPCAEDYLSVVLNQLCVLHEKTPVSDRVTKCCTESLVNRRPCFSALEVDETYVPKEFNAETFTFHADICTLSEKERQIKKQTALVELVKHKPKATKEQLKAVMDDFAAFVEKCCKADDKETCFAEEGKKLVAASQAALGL

In series [1] (In BSA), `Cc1cc(-c2ccc(N=Nc3ccc4c(S(=O)(=O)O)cc(S(=O)(=O)O)c(N)c4c3O)c(C)c2)ccc1N=Nc1ccc2c(S(=O)(=O)O)cc(S(=O)(=O)O)c(N)c2c1O` [EB, tetrasodium salt of 6,6′-{(3,3′-dimethyl[1,1′-biphenyl]-4,4′-diyl)bis[diazene-2,1-diyl]}bis(4-amino-5-hydroxynaphthalene-1,3-disulfonate)] returned an OD600nm of 0.905, an ODpeak of 0.9551, a ϵ600nm of 88.14 and a ϵpeak of 93.02. Further, in series [1] (In BSA), the “Molar ϵ600nm” value was found to be 84683.69 and the “Molar ϵpeak” value was 89371.71. For the same compound, in series [1] (In FBS), the OD600nm came to 0.8414, the ODpeak is recorded as 0.9057, the ϵ600nm is 81.94 and the ϵpeak amounted to 88.21. Further, in series [1] (In FBS), the “Molar ϵ600nm” value stood at 78732.44 and the “Molar ϵpeak” value amounted to 84749.19. In series [1] (In PBS), this compound showed an OD600nm of 0.9906, an ODpeak of 0.9983, a ϵ600nm of 96.47 and a ϵpeak of 97.22. In series [1] (In PBS), the “Molar ϵ600nm” value stood at 92693.55 and the “Molar ϵpeak” value turned out to be 93414.07. In series [1], this compound came in with an Absorption peak of 548 nm and an Emission peak of 660 nm.
As to `Cc1cc(-c2ccc(NC(=O)CN3CCN(CC(=O)O)CCN(CC(=O)Nc4ccc(-c5ccc(N=Nc6ccc7c(S(=O)(=O)O)cc(S(=O)(=O)O)c(N)c7c6O)c(C)c5)cc4C)CC3)c(C)c2)ccc1N=Nc1ccc2c(S(=O)(=O)O)cc(S(=O)(=O)O)c(N)c2c1O` [N(tEB)2], in series [2], the “Kd times lower than EB complex with albumin” value was determined as 2 times, the “Kd times lower than NtEB complex with albumin” value worked out at 43 times, the Kon value amounted to 47100 M⁻¹ s⁻¹ and the koff value stood at 0.10 s⁻¹. Also, in series [2] (pH 7.4), the Kd – broadly, the equilibrium constant for the complex coming apart – was 1.8 µM; the Koff worked out at 0.1009 s⁻¹; the Kon turned out to be 4.7128. Besides, in series [1], the “QE improvement over NtEB” value is reported as 5 fold, the “Quantum yield enhancement over NtEB” value is 2 fold, the Extinction coefficient amounted to 55198 M⁻¹ cm⁻¹ and the Absorption peak came out at 610 nm. Moreover, in series [1], the Emission peak is 661 nm. Besides, in series [1] (In BSA), the OD600nm is given as 0.1245, the ODpeak amounted to 0.183, the ϵ600nm was determined as 27.79 and the ϵpeak turned out to be 40.85. In series [1] (In BSA), the QE was 78929.01, the “Molar ϵ600nm” value was 37553.09, the “Molar ϵpeak” value is on record as 55198.51 and the QY600nm is on record as 2.10. In addition, in series [1] (In FBS), the OD600nm was 0.1561, the ODpeak is on record as 0.1931, the ϵ600nm is on record as 34.84 and the ϵpeak amounted to 43.10. In series [1] (In FBS), the QE is listed as 98962.49, the “Molar ϵ600nm” value worked out at 47084.63, the “Molar ϵpeak” value is 58244.99 and the QY600nm was found to be 2.10. In series [1] (In PBS), this compound displayed an OD600nm of 0.0987, an ODpeak of 0.1806, a ϵ600nm of 22.03 and a ϵpeak of 40.31. For the same compound, in series [1] (In PBS), the “Molar ϵ600nm” value is listed as 29771.00 and the “Molar ϵpeak” value is on record as 54474.60. In addition, in series [3] (24 h p.i.), the “Tumor retention compared with IgG” value is “comparable”. In addition, the “Tumor retention compared with IgG” value in series [3] (48 h p.i.) is given as “significantly higher”. Also, the “Tumor uptake compared with NtEB” value in series [3] (^64Cu labeled, all tested tumor models, 24 and/or 48 h p.i.) is on record as “significantly improved”. The “Dimerization of albumin (AFM)” value in series [4] is “observed at all tested molar ratios”.
On to `Cc1cc(-c2ccc(NC(=O)CN3CCN(CC(=O)O)CCN(CC(=O)O)CC3)c(C)c2)ccc1N=Nc1ccc2c(S(=O)(=O)O)cc(S(=O)(=O)O)c(N)c2c1O` [NtEB], for which, in series [2] (pH 7.4), the Kd was 79 µM, the Koff is 0.7947 s⁻¹ and the kon (usually a measure of how fast the partners come together) was 13500 M⁻¹ s⁻¹. In series [1] (In BSA), this compound returned an OD600nm of 0.0759, an ODpeak of 0.1108, a ϵ600nm of 18.98 and a ϵpeak of 27.70. Also, in series [1] (In BSA), the QE was 15696.60, the “Molar ϵ600nm” value is 15696.60, the “Molar ϵpeak” value is recorded as 22914.15 and the QY600nm came to 1. In series [1] (In FBS), the OD600nm was 0.0883, the ODpeak was 0.1132, the ϵ600nm came to 22.08 and the ϵpeak stood at 28.30. In addition, in series [1] (In FBS), the QE came to 18261.00, the “Molar ϵ600nm” value stood at 18261.00, the “Molar ϵpeak” value amounted to 23410.48 and the QY600nm is given as 1. Further, in series [1] (In PBS), the OD600nm is recorded as 0.0857, the ODpeak was determined as 0.1533, the ϵ600nm was found to be 21.43 and the ϵpeak turned out to be 38.33. Besides, in series [1] (In PBS), the “Molar ϵ600nm” value worked out at 17723.31 and the “Molar ϵpeak” value turned out to be 31703.42. Moreover, in series [1], the Extinction coefficient was 22914 M⁻¹ cm⁻¹, the Absorption peak is recorded as 550 nm and the Emission peak is recorded as 652 nm. For the same compound, in series [4], the “Dimerization of albumin (AFM)” value is “no apparent albumin dimers”.
As to “exendin-4: exendin-4 peptide, a glucagon-like peptide-1 (GLP-1) agonist”, in series [5] (1 h p.i., normalized to baseline plasma glucose), the “Reduction of glucose level” value was “approximately 50%”. Also, in series [5] (at 12 h), the “Glucose level at recovery” value was 389.67 ± 44.3 mg/dL. In addition, in series [5] (single subcutaneous injection), the “Effective time window (from 50% reduction of glucose level to rebound to the original level)” value is 10.3 h and the Glucose recovery time was found to be 12 h.
